# According to BindingDB's records for doi:10.1021/jm00116a003 (Virginia Commonwealth University, 1992):
# Test: The compound was tested for its binding affinity towards sigma receptor in guinea pig brain membranes.
row,Structure (SMILES),Ki [nM]
1,Clc1ccc(C2=CCN(CCCCc3ccccc3)CC2)cc1,4.1

# Test: as above
# Remark: another data set of the same source
row,Structure (SMILES),Ki [nM]
1,COc1ccccc1C1(O)CCNCC1,14300
2,Clc1cccc(N2CCN(CCc3ccccc3)CC2)c1,11
3,O=C(c1ccccc1)N1CCNCC1,11400

# The remaining lines, values ahead:
row,Ki [nM],Structure (SMILES)
1,5.4,FC(F)(F)c1cccc(N2CCN(CCCCc3ccccc3)CC2)c1
2,2.9,Clc1ccc(N2CCN(CCCc3ccccc3)CC2)cc1
3,2.8,c1ccc(CCCN2CCN(c3ccc4ccccc4c3)CC2)cc1
4,2.6,c1ccc(CCCCN2CCN(c3ccccc3)CC2)cc1
